Data on eight compounds can be found in PubChem BioAssay (NCI).

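In this assay, cells in 96-well plates receive the compound at five concentrations for 48 hours. Endpoints are linearly interpolated between the surrounding concentrations. Abbreviation: GI50, concentration required for 50% inhibition of growth. At the TGI there is no net growth.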

Test in all cases: DTP human tumour cell line panel, 48 h
The test system of assay [1] is UO-31 renal.
In assay [2] the test system is U251 CNS.
In assay [3] the test system is NCI-H23 lung.
Assay [4] relates to HCT-15 colon.
In assay [5] the test system is LOX IMVI melanoma.
The subject of assay [6] is OVCAR-5 ovarian.
Assay [7] deals with MOLT-4 leukemia.
In assay [8] the test system is PC-3 prostate.
For assay [9], the system named is A549 NSCLC.
For assay [10], the system named is IGROV1 ovarian.

Broadly, the GI50 is the concentration at which growth is held to half of that of the control. Broadly, the TGI is the concentration giving total growth inhibition. Low readings indicate more potent growth arrest, high ones less potent growth arrest. With `CN(C)C(=S)Sc1ccc([N+](=O)[O-])cc1[N+](=O)[O-]`, the GI50 in assay [1] is 1790 nM; in assay [2], 1580 nM; in [3] it was 2930 nM; in [4], 1460 nM; in assay [5] it was 1530 nM; in assay [6] it was 6010 nM. In addition, the GI50 in assay [7] was 2040 nM; in [8], 2170 nM; in [9], 3210 nM; in assay [10], 1260 nM. In addition, the TGI in [1] turned out to be 6.29 µM; in [2] it was 8.97 µM; in [3] it was 11.6 µM; in assay [4] it was 4.2 µM; in assay [5], 3.63 µM; in assay [6], 18.1 µM. Besides, the TGI in [7] is over 42 µM; in assay [8], 13.3 µM; in assay [9], 17.6 µM; in assay [10], 13.1 µM.
Turning to `Nc1c(C(=O)c2ccccc2)cnn1-c1ccc(F)cc1`, the GI50 in assay [1], in assay [2], in [3], in assay [4], in [5] and in assay [6] was over 25000 nM each time. In addition, the GI50 in assay [7], in [8], in [9] and in [10] was over 25000 nM throughout. For the same compound, the total growth inhibition concentration (TGI) in [1], in assay [2], in [3], in assay [4], in assay [5] and in [6] was over 25 µM in each case. Also, the TGI in assay [7], in assay [8], in assay [9] and in assay [10] was over 25 µM in each case.
As for `COC(=O)c1ccc2c(c1)/C(=C\c1cc(Br)c(O)c(Br)c1)C(=O)N2`, the GI50 in [1] was 6840 nM; in assay [2], 6590 nM; in assay [3] it was 7220 nM; in assay [4] it was 5470 nM; in [5], 4130 nM; in assay [6], 13500 nM. For the same compound, the GI50 in assay [7] is 7590 nM; in [8], 7680 nM; in assay [9], 8190 nM; in assay [10], 7290 nM. Further, the TGI in assay [1], in assay [2], in assay [3], in assay [4], in assay [5] and in assay [6] was over 25 µM each time. In addition, the TGI was over 24.1 µM in assay [7], over 25 µM in [8], over 25 µM in [9] and over 25 µM in assay [10].
On to `CN(C)c1ccc(N=Nc2ccccn2)c(O)c1`, for which the GI50 is 215 nM in [1]; 258 nM in assay [2]; 564 nM in [3]; 112 nM in [4]; 258 nM in assay [5]; 992 nM in assay [6]. The GI50 in [7] is 243 nM; in assay [8], 416 nM; in assay [9], 478 nM; in [10], 317 nM. For the same compound, the TGI is over 100 µM in assay [2]; over 100 µM in assay [3]; over 100 µM in assay [4]; over 100 µM in assay [5]; over 100 µM in assay [6]; over 87.8 µM in assay [7]. In addition, the total growth inhibition concentration (TGI) in assay [8], in assay [9] and in assay [10] was over 100 µM in each case.
For the compound `C[C@H]1CN[C@@H]2[C@@H](C)[C@H]3[C@@H](C[C@H]4[C@@H]5CC[C@H]6C[C@@H](N)CC[C@]6(C)[C@H]5CC[C@]34C)O[C@@]2(O)C1`, the concentration for total growth inhibition (TGI) was found to be 5.79 µM in assay [1]; 4.9 µM in [2]; 26.9 µM in [3]; 4.5 µM in assay [4]; 4.08 µM in assay [5]; 19.6 µM in [6]. Besides, the total growth inhibition concentration (TGI) in assay [7] was determined as 7.77 µM; in assay [8], 13.9 µM; in assay [9], 17.3 µM; in assay [10], 9.66 µM.
On to `Cc1cc2cc3c(=O)[nH]c(=O)[nH]c3nc2cc1C`, for which the TGI in [1], in [2], in assay [3], in [4], in assay [5] and in [6] was over 100 µM throughout. In addition, the total growth inhibition concentration (TGI) in assay [7], in assay [8], in assay [9] and in assay [10] was over 100 µM throughout.
`Cn1c(Nc2ccc(C(F)(F)F)cc2)nc2cc(Oc3ccnc(-c4ncc(C(F)(F)F)[nH]4)c3)ccc21`: the concentration for 50% growth inhibition (GI50) in assay [1] was 239 nM; in assay [2], 154 nM; in assay [3], 310 nM; in assay [4], 69.7 nM; in assay [5], 59.9 nM; in [6], 1530 nM. The 50% growth inhibitory concentration (GI50) in assay [7] is 319 nM; in assay [8] it was 1530 nM; in assay [9], 231 nM; in assay [10], 66.8 nM. Also, the concentration for total growth inhibition (TGI) was 10.2 µM in [1]; 12.9 µM in assay [2]; 7.8 µM in [3]; 12.8 µM in [4]; 1.78 µM in [5]; 17.4 µM in assay [6]. Besides, the total growth inhibition concentration (TGI) in assay [7] turned out to be 8.76 µM; in [8] it was 17.2 µM; in [9], 11.7 µM; in assay [10], 15.4 µM.
On to `C#Cc1nc(Nc2cc(C)[nH]n2)c2ccccc2n1`, for which the concentration for 50% growth inhibition (GI50) is 222 nM in assay [1]; 256 nM in assay [2]; 553 nM in assay [3]; 205 nM in assay [4]; 151 nM in assay [5]; 332 nM in [6]. Further, the 50% growth inhibitory concentration (GI50) in assay [7] is 250 nM; in [8], 317 nM; in [9] it was 394 nM; in assay [10], 220 nM. The TGI in [1] came out at 0.792 µM; in [2] it was 0.885 µM; in assay [3], 3.59 µM; in assay [4] it was 0.474 µM; in [5], 0.308 µM; in assay [6], 0.995 µM. The concentration for total growth inhibition (TGI) in assay [7] is 0.685 µM; in assay [8] it was 1.4 µM; in assay [9] it was 2.24 µM; in [10] it was 0.563 µM.
